How the values were obtained:
SaBphP2 PCM [1] = target: T1, SaBphP2 PCM (Allostigmatella aurantiaca, UniProt Q09E27, H275T); assay: X-ray crystal structure ([…] Å, […] K); type: binding; settings: covalent (thioether to Cys13); Pr state, dark; chromophore
T1 construct: gene STIAU_8420; photosensory core module PAS-GAF-PHY, residues 1-497, histidine kinase domain removed; homodimer; BV on Cys13

SaBphP2 PCM [2] = target: T2, SaBphP2 PCM (Allostigmatella aurantiaca, UniProt Q09E27); assay: X-ray crystal structure ([…] Å, […] K; SFX […] Å, […] K); type: binding; settings: covalent (thioether to Cys13); Pr state, dark; chromophore
T2 construct: gene STIAU_8420; photosensory core module PAS-GAF-PHY, residues 1-497, histidine kinase domain removed; homodimer; BV on Cys13
T2 sequence (Q09E27 entry or part of it): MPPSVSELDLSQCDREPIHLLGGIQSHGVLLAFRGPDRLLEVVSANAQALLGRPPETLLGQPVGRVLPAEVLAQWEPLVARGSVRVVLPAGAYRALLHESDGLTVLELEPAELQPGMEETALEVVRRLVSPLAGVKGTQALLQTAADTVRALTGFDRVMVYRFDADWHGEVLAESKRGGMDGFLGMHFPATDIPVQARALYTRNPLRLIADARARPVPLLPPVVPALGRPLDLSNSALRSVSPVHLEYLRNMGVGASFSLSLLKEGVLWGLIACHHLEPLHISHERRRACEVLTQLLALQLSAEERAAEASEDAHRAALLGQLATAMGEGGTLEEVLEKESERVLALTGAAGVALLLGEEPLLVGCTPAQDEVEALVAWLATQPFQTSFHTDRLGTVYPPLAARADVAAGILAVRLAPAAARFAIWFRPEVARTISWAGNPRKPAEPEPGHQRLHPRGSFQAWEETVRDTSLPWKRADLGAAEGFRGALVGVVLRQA

T1 sequence (Q09E27 entry or part of it H275T): as the sequence (Q09E27 entry or part of it) above, with H275T counted along it

## C=CC1=C(C)C(=Cc2[nH]c(C=C3N=C(C=C4NC(=O)C(C)=C4C=C)C(C)=C3CCC(=O)O)c(CCC(=O)O)c2C)NC1=O [biliverdin]
SaBphP2 PCM [1]
  X-ray crystal structure (2.2 Å, 100 K): The cryostructure of the His275Thr mutant is essentially identical to that of the wild-type
SaBphP2 PCM [2]
  X-ray crystal structure (1.65 Å, 100 K; SFX 2.1 Å, 293 K): The BV chromophore is bound to Cys13 close to the N-terminus

Reference: PMC6748860, “High-resolution crystal structures of a myxobacterial phytochrome at cryo and room temperatures” (Structural Dynamics, 2019)
